Tests used:
PC-3 = assay: NCI 60 screen, PC-3; type: cell-based; conditions: Homo sapiens, Prostatic
Description: (§1) The compounds synthesized were tested at the National Cancer Institute (NCI) for anti-proliferative activity in the 60 human tumor cell line assay.

MOLT-4 = assay: NCI 60 screen, MOLT-4; type: cell-based; conditions: Homo sapiens, Leukemia
Description: as §1

A549/ATCC = assay: NCI 60 screen, A549/ATCC; type: cell-based; conditions: Homo sapiens, Non-Small Cell Lung
Description: as §1

786-0 = assay: NCI 60 screen, 786-0; type: cell-based; conditions: Homo sapiens, Renal
Description: as §1

NCI-460 = assay: NCI 60 screen, NCI-460; type: cell-based; conditions: Homo sapiens, Non-Small Cell Lung
Description: as §1

HOP-62 = assay: NCI 60 screen, HOP-62; type: cell-based; conditions: Homo sapiens, Non-Small Cell Lung
Description: as §1

MDA-MB-468 = assay: NCI 60 screen, MDA-MB-468; type: cell-based; conditions: Homo sapiens, Breast
Description: as §1

NCI-H226 = assay: NCI 60 screen, NCI-H226; type: cell-based; conditions: Homo sapiens, Non-Small Cell Lung
Description: as §1

SF-295 = assay: NCI 60 screen, SF-295; type: cell-based; conditions: Homo sapiens, CNS
Description: as §1

NCI-H23 = assay: NCI 60 screen, NCI-H23; type: cell-based; conditions: Homo sapiens, Non-Small Cell Lung
Description: as §1

HT29 = assay: NCI 60 screen, HT29; type: cell-based; conditions: Homo sapiens, HT-29, Colon
Description: as §1

HOP-92 = assay: NCI 60 screen, HOP-92; type: cell-based; conditions: Homo sapiens, Non-Small Cell Lung
Description: as §1

IGROV1 = assay: NCI 60 screen, IGROV1; type: cell-based; conditions: Homo sapiens, IGROV-1, Ovarian
Description: as §1

EKVX = assay: NCI 60 screen, EKVX; type: cell-based; conditions: Homo sapiens, Non-Small Cell Lung
Description: as §1

HS 578T = assay: NCI 60 screen, HS 578T; type: cell-based; conditions: Homo sapiens, Breast
Description: as §1

RXF393 = assay: NCI 60 screen, RXF393; type: cell-based; conditions: Homo sapiens, RXF 393, Renal
Description: as §1

K-562 = assay: NCI 60 screen, K-562; type: cell-based; conditions: Homo sapiens, K562, Leukemia
Description: as §1

SK-MEL-5 = assay: NCI 60 screen, SK-MEL-5; type: cell-based; conditions: Homo sapiens, Melanoma
Description: as §1

BT-549 = assay: NCI 60 screen, BT-549; type: cell-based; conditions: Homo sapiens, Breast
Description: as §1

SNB-75 = assay: NCI 60 screen, SNB-75; type: cell-based; conditions: Homo sapiens, CNS
Description: as §1

MDA-MB-435 = assay: NCI 60 screen, MDA-MB-435; type: cell-based; conditions: Homo sapiens, Melanoma
Description: as §1

NCI-H522 = assay: NCI 60 screen, NCI-H522; type: cell-based; conditions: Homo sapiens, Non-Small Cell Lung
Description: as §1

TK-10 = assay: NCI 60 screen, TK-10; type: cell-based; conditions: Homo sapiens, Renal
Description: as §1

UO-31 = assay: NCI 60 screen, UO-31; type: cell-based; conditions: Homo sapiens, Renal
Description: as §1

CAKI-1 = assay: NCI 60 screen, CAKI-1; type: cell-based; conditions: Homo sapiens, Renal
Description: as §1

UACC-62 = assay: NCI 60 screen, UACC-62; type: cell-based; conditions: Homo sapiens, Melanoma
Description: as §1

SR = assay: NCI 60 screen, SR; type: cell-based; conditions: Homo sapiens, Leukemia
Description: as §1

CCRF-CEM = assay: NCI 60 screen, CCRF-CEM; type: cell-based; conditions: Homo sapiens, Leukemia
Description: as §1

MDA-MB-231/ATCC = assay: NCI 60 screen, MDA-MB-231/ATCC; type: cell-based; conditions: Homo sapiens, Breast
Description: as §1

UACC-257 = assay: NCI 60 screen, UACC-257; type: cell-based; conditions: Homo sapiens, Melanoma
Description: as §1

SK-MEL-2 [1] = assay: NCI 60 screen, SK-MEL-2 (second line); type: cell-based; conditions: Homo sapiens; Melanoma, SK-MEL-2 (second of two lines so named, r38)
Description: as §1

SN12C = assay: NCI 60 screen, SN12C; type: cell-based; conditions: Homo sapiens, Renal
Description: as §1

OVCAR-5 = assay: NCI 60 screen, OVCAR-5; type: cell-based; conditions: Homo sapiens, Ovarian
Description: as §1

RPMI-8226 = assay: NCI 60 screen, RPMI-8226; type: cell-based; conditions: Homo sapiens, Leukemia
Description: as §1

SF-539 = assay: NCI 60 screen, SF-539; type: cell-based; conditions: Homo sapiens, CNS
Description: as §1

KM12 = assay: NCI 60 screen, KM12; type: cell-based; conditions: Homo sapiens, Colon
Description: as §1

SK-OV-3 = assay: NCI 60 screen, SK-OV-3; type: cell-based; conditions: Homo sapiens, Ovarian
Description: as §1

DU-145 = assay: NCI 60 screen, DU-145; type: cell-based; conditions: Homo sapiens, Prostatic
Description: as §1

NCI-322M = assay: NCI 60 screen, NCI-322M; type: cell-based; conditions: Homo sapiens, Non-Small Cell Lung
Description: as §1

MALME-3M = assay: NCI 60 screen, MALME-3M; type: cell-based; conditions: Homo sapiens, Melanoma
Description: as §1

OVCAR-3 = assay: NCI 60 screen, OVCAR-3; type: cell-based; conditions: Homo sapiens, Ovarian
Description: as §1

LOX IMVI = assay: NCI 60 screen, LOX IMVI; type: cell-based; conditions: Homo sapiens, Melanoma
Description: as §1

COLO 205 = assay: NCI 60 screen, COLO 205; type: cell-based; conditions: Homo sapiens, Colon
Description: as §1

T-47D = assay: NCI 60 screen, T-47D; type: cell-based; conditions: Homo sapiens, T47D, Breast
Description: as §1

SK-MEL-2 [2] = assay: NCI 60 screen, SK-MEL-2 (first line); type: cell-based; conditions: Homo sapiens; Melanoma, SK-MEL-2 (first of two lines so named, r37)
Description: as §1

M14 = assay: NCI 60 screen, M14; type: cell-based; conditions: Homo sapiens, Melanoma
Description: as §1

HCT-116 = assay: NCI 60 screen, HCT-116; type: cell-based; conditions: Homo sapiens, Colon
Description: as §1

U251 = assay: NCI 60 screen, U251; type: cell-based; conditions: Homo sapiens, U-251, CNS
Description: as §1

HCC-2998 = assay: NCI 60 screen, HCC-2998; type: cell-based; conditions: Homo sapiens, Colon
Description: as §1

NCI/ADR-RES = assay: NCI 60 screen, NCI/ADR-RES; type: cell-based; conditions: Homo sapiens, Ovarian
Description: as §1

SF-268 = assay: NCI 60 screen, SF-268; type: cell-based; conditions: Homo sapiens, CNS
Description: as §1

OVCAR-8 = assay: NCI 60 screen, OVCAR-8; type: cell-based; conditions: Homo sapiens, Ovarian
Description: as §1

HCT15 = assay: NCI 60 screen, HCT15; type: cell-based; conditions: Homo sapiens, HCT-15, Colon
Description: as §1

HL-60(TB) = assay: NCI 60 screen, HL-60(TB); type: cell-based; conditions: Homo sapiens, Leukemia
Description: as §1

MCF7 = assay: NCI 60 screen, MCF7; type: cell-based; conditions: Homo sapiens, Breast
Description: as §1

SW-620 = assay: NCI 60 screen, SW-620; type: cell-based; conditions: Homo sapiens, Colon
Description: as §1

ACHN = assay: NCI 60 screen, ACHN; type: cell-based; conditions: Homo sapiens, Renal
Description: as §1

A498 = assay: NCI 60 screen, A498; type: cell-based; conditions: Homo sapiens, Renal
Description: as §1

SNB-19 = assay: NCI 60 screen, SNB-19; type: cell-based; conditions: Homo sapiens, CNS
Description: as §1

OVCAR-4 = assay: NCI 60 screen, OVCAR-4; type: cell-based; conditions: Homo sapiens, Ovarian
Description: as §1

## Cn1ccnc1C(=O)/C=C/c1ccc(CC(=O)Nc2ccc(F)cc2)cc1 [Compound 28, (E)-N-(4-fluorophenyl)-2-(4-(3-(1-methyl-1H-imidazol-2-yl)-3-oxoprop-1-en-1-yl)phenyl)acetamide]
PC-3
  GI50: 1.99 µM
MOLT-4
  GI50: 2.32 µM
A549/ATCC
  GI50: 6.43 µM
786-0
  GI50: 1.37 µM
NCI-460
  GI50: 1.8 µM
HOP-62
  GI50: 4.68 µM
MDA-MB-468
  GI50: 1.72 µM
NCI-H226
  GI50: 8.57 µM
SF-295
  GI50: 4.55 µM
NCI-H23
  GI50: 3.04 µM
HT29
  GI50: 2.27 µM
HOP-92
  GI50: 4.51 µM
IGROV1
  GI50: 2.93 µM
EKVX
  GI50: 5.5 µM
HS 578T
  GI50: 1.5 µM
other
  melting point: 213 °C
RXF393
  GI50: 3.89 µM
K-562
  GI50: 0.82 µM
SK-MEL-5
  GI50: 4.45 µM
BT-549
  GI50: 1.32 µM
SNB-75
  GI50: 3.74 µM
MDA-MB-435
  GI50: 4.25 µM
NCI-H522
  GI50: 3.34 µM
TK-10
  GI50: 10.5 µM
UO-31
  GI50: 1.72 µM
CAKI-1
  GI50: 3.14 µM
UACC-62
  GI50: 3.51 µM
SR
  GI50: 0.51 µM
CCRF-CEM
  GI50: 2 µM
MDA-MB-231/ATCC
  GI50: 2.96 µM
UACC-257
  GI50: 6.99 µM
SK-MEL-2 [1]
  GI50: 4.47 µM
SN12C
  GI50: 1.62 µM
OVCAR-5
  GI50: 4.36 µM
RPMI-8226
  GI50: 1.02 µM
SF-539
  GI50: 3.59 µM
KM12
  GI50: 1.62 µM
SK-OV-3
  GI50: 9.81 µM
DU-145
  GI50: 1.24 µM
NCI-322M
  GI50: 2.07 µM
MALME-3M
  GI50: 5.28 µM
OVCAR-3
  GI50: 0.96 µM
LOX IMVI
  GI50: 0.71 µM
COLO 205
  GI50: 4.39 µM
T-47D
  GI50: 8.34 µM
SK-MEL-2 [2]
  GI50: 7.01 µM
M14
  GI50: 3.23 µM
HCT-116
  GI50: 0.99 µM
U251
  GI50: 1.4 µM
HCC-2998
  GI50: 3.78 µM
NCI/ADR-RES
  GI50: 4.24 µM
SF-268
  GI50: 2.89 µM
OVCAR-8
  GI50: 5.71 µM
HCT15
  GI50: 1.29 µM
HL-60(TB)
  GI50: 1.6 µM
MCF7
  GI50: 1.04 µM
SW-620
  GI50: 1.97 µM
ACHN
  GI50: 5.74 µM
A498
  GI50: 5.56 µM
SNB-19
  GI50: 2.74 µM
OVCAR-4
  GI50: 5.68 µM
